Read-outs that look alike come from different tables or passages of the source.
What was measured:
[1] = target: T1, P-Selectin (Homo sapiens, UniProt P16109); assay: Inhibition of HL60 cell adhesion to soluble, recombinant P-selectin (P-selectin-IgG1 fusion protein); assay type: cell-based
T1 sequence (P16109 42-771): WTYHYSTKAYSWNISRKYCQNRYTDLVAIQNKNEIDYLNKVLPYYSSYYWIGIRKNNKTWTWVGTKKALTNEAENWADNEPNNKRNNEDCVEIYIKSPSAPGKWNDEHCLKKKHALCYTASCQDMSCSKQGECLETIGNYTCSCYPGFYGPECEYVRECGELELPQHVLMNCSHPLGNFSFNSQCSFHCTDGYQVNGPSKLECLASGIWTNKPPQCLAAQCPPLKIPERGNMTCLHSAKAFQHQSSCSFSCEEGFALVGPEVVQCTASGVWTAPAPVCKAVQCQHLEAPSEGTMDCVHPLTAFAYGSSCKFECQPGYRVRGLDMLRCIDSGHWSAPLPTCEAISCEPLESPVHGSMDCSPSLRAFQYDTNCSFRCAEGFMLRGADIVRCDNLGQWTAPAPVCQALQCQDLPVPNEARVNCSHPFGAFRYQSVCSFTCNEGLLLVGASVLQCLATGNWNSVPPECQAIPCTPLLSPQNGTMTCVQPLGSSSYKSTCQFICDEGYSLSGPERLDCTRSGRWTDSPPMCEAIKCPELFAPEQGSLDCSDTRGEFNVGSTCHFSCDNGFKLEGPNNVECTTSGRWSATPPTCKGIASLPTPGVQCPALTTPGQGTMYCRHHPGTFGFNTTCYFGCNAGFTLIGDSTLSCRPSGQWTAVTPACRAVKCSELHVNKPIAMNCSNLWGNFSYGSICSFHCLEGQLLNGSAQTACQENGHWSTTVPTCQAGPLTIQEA
Source text: (§1) Carrying out these assays to measure the inhibitory activity of the compounds according to the invention on cell adhesion of promyelocytic cells by means of selecting is described in detail in European Published Application EP 0 601 417.
(§2) In order to test the efficacy of the carbohydrate conjugates on the interaction between the E- and P-selectins (former nomenclature ELAM-1 or GMP-140) with their ligands, an assay is used which in each case is specific only for one of these interactions. The ligands are supplied in their natural form as surface structures on promyelocytic HL60 cells. Since HL60 cells contain ligands and adhesion molecules of very different specificity, the desired specificity of the assay can only be produced by means of the binding component. The binding components used were genetically prepared soluble fusion proteins from the in each case extracytoplasmatic domains of E- or P-selectin and the constant region of a human immunoglobulin of the IgG1 subclass.
Preparation of P-selectin-IgG1
For preparation of the soluble P-selectin-IgG1 fusion protein, the genetic construct "ICD62Rg" published by Aruffo et al., 1991 is used. The further procedure corresponds to the preparation of L-selectin-IgG1 presented under A1.
(§3) 1. 96-well microtiter test plates (Nunc Maxisorb) are incubated at room temperature for 2 hours with 100 μl of a goat anti-human IgG antibody (Sigma) diluted (1+100) in 50 mM Tris pH 9.5. After removing the antibody solution washing is carried out once with PBS.
(§4) 2. 150 μl of the blocking buffer are left in the wells at room temperature for 1 hour. The composition of the blocking buffer is: 0.1% gelatin, 1% BSA, 5% calf serum, 0.2 mM PMSF, 0.02% sodium azide. After removing the blocking buffer washing is carried out once with PBS.
(§5) 3. 100 μl each of cell culture supernatant of appropriately transfected and expressing COS cells are pipetted into the wells. Incubation is carried out at room temperature for 2 hours. After removing the cell culture supernatant washing is carried out once with PBS.
(§6) 4. 20 μl of binding buffer are added to the wells. The binding buffer has the composition: 50 mM HEPES, pH 7.5; 100 mM NaCl; 1 mg/ml BSA; 2 mM MgCl2; 1 mM CaCl2; 3 mM MnCl2; 0.02% sodium azide; 0.2 mM PMSF. 5 μl of the test substance are pipetted into this, mixed by swirling the plate and incubated at room temperature for 10 minutes.
(§7) 5. 50 ml of an HL60 cell culture containing 200,000 cells/ml are centrifuged at 350 g for 4 minutes. The pellet is resuspended in 10 ml of RPMI 1640 and the cells are centrifuged again. For labeling the cells, 50 μg of BCECF-AM (Molecular Probes) are dissolved in 5 μl of anhydrous DMSO; 1.5 ml of RPMI 1640 are then added to the BCECF-AM/DMSO solution. The cells are resuspended using this solution and incubated at 37° C. for 30 minutes. After centrifugation at 350 g for 2 minutes, the labeled cell pellet is resuspended in 11 ml of binding buffer and the resuspended cells are distributed into the microtiter plate wells in 100 μl aliquots. The plate is allowed to stand at room temperature for 10 minutes in order to allow the cells to sediment on the bottom of the test plate. In the course of this, the cells have the opportunity to adhere to the coated plastic.
(§8) 6. To stop the test, the microtiter plate is immersed completely in the stop buffer (25 mM tris, pH 7.5; 125 mM NaCl; 0.1% BSA; 2 mM MgCl2; 1 mM CaCl2; 3 mM MnCl2; 0.02% sodium azide) at an angle of 45°. The stop buffer is removed from the wells by inversion and the procedure is repeated a further two times.
7. Measurement of the BCECF-AM-labeled cells firmly adhering to the wells is carried out in a cytofluorimeter (Millipore) at a sensitivity setting of 4, an excitation wavelength of 485/220 nm and an emission wavelength of 530/250 nm.

[2] = target: T2, E-Selectin (Homo sapiens, UniProt P16581); assay: Inhibition of HL60 cell adhesion to soluble, recombinant E-selectin (E-selectin-IgG1 fusion protein); assay type: cell-based
T2 sequence (P16581 22-556): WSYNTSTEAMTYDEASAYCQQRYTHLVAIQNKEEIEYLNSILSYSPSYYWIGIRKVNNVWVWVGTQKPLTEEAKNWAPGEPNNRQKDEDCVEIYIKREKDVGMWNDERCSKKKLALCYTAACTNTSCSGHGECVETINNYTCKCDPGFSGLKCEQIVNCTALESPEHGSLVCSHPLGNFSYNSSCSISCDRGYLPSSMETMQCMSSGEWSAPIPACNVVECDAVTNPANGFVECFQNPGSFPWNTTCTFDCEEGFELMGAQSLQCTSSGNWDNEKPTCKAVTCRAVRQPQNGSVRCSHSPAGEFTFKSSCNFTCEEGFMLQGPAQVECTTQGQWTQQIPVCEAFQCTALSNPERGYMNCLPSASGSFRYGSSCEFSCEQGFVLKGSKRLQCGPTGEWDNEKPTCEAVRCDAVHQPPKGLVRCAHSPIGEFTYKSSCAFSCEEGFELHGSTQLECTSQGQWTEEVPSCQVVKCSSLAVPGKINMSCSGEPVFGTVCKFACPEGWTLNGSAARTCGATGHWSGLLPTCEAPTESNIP
Source text: as §1, §2
Preparation of L-selectin-IgG1
For the preparation of soluble L-selectin-IgG1 fusion protein, the genetic construct "ELAM-Rg" published by Walz et al., 1990 was used.
For expression, the plasmid DNA was transfected in COS-7 cells (ATCC) by means of DEAE-dextran (Molecular Biology Methods: see Ausubel, F. M., Brent, R., Kingston, R. E., Moore, D. D., Seidman, J. G., Struhl, K. and Smith, J. A. 1990. Current Protocols in Molecular Biology, John Wiley, New York). Seven days after transfection, the culture supernatant is recovered, freed from cells and cell fragments by centrifugation and transferred to 25 mM HEPES pH 7.0, 0.3 mM PMSF, 0.02% sodium azide and stored at +4° C.
as §3, §4, §5, §6, §7, §8

[3] = inhibition of HL60 cell adhesion to soluble, recombinant adhesion molecules, read-out: IC50 P-Selectin
[4] = read-out: IC50 E-Selectin, inhibition of HL60 cell adhesion to soluble, recombinant adhesion molecules
[5] = read-out: IC50 P-Selectin, inhibition of HL60 cell adhesion to soluble, recombinant adhesion molecules
[6] = inhibition of HL60 cell adhesion to soluble, recombinant adhesion molecules, read-out: IC50 E-Selectin

Compound: CC(=O)N[C@H]1[C@H](OCCCCCCNC(=O)CCCC[C@@H]2SC[C@@H]3NC(=O)N[C@@H]32)O[C@H](CO)[C@@H](O[C@@H]2O[C@H](CO)[C@H](O)[C@H](O[C@]3(C(=O)O)C[C@H](O)[C@@H](NC(C)=O)[C@H]([C@H](O)[C@H](O)CO)O3)[C@H]2O)[C@@H]1O[C@@H]1O[C@@H](C)[C@@H](O)[C@@H](O)[C@@H]1O [Compound I-11]
- IC50 [1, 3]: 600 µM

Compound: CC(=O)N[C@H]1[C@H](OCCCCCCNC(=O)CCCCCNC(=O)CCC(CCC(=O)NCCCCCC(=O)NCCCCCCO[C@@H]2O[C@H](CO)[C@@H](O[C@@H]3O[C@H](CO)[C@H](O)[C@H](O[C@]4(C(=O)O)C[C@H](O)[C@@H](NC(C)=O)[C@H]([C@H](O)[C@H](O)CO)O4)[C@H]3O)[C@H](O[C@@H]3O[C@@H](C)[C@@H](O)[C@@H](O)[C@@H]3O)[C@H]2NC(C)=O)(CCC(=O)NCCCCCC(=O)NCCCCCCO[C@@H]2O[C@H](CO)[C@@H](O[C@@H]3O[C@H](CO)[C@H](O)[C@H](O[C@]4(C(=O)O)C[C@H](O)[C@@H](NC(C)=O)[C@H]([C@H](O)[C@H](O)CO)O4)[C@H]3O)[C@H](O[C@@H]3O[C@@H](C)[C@@H](O)[C@@H](O)[C@@H]3O)[C@H]2NC(C)=O)[N+](=O)[O-])O[C@H](CO)[C@@H](O[C@@H]2O[C@H](CO)[C@H](O)[C@H](O[C@]3(C(=O)O)C[C@H](O)[C@@H](NC(C)=O)[C@H]([C@H](O)[C@H](O)CO)O3)[C@H]2O)[C@@H]1O[C@@H]1O[C@@H](C)[C@@H](O)[C@@H](O)[C@@H]1O [II-3]
- IC50 [2, 4]: 400 µM
- IC50 [1, 5]: > 1000 µM

Compound: CC(=O)N[C@@H]1[C@@H](O[C@@H]2O[C@@H](C)[C@@H](O)[C@@H](O)[C@@H]2O)[C@H](O[C@@H]2O[C@H](CO)[C@H](O)[C@H](O[C@]3(C(=O)O)C[C@H](O)[C@@H](NC(C)=O)[C@H]([C@H](O)[C@H](O)CO)O3)[C@H]2O)[C@@H](CO)O[C@H]1NC(=O)[C@H](C)NC(=O)[C@H](CC(=O)O)NC(=O)CNC(=O)[C@@H](N)CCCNC(=N)N [Compound I-2]
- IC50 [2]: > 800 µM
- IC50 [1]: 10 µM

Compound: CC(=O)N[C@H]1[C@H](OCCCCCCNC(=O)CCC(CCC(=O)NCCCCCCO[C@@H]2O[C@H](CO)[C@@H](O[C@@H]3O[C@H](CO)[C@H](O)[C@H](O[C@]4(C(=O)O)C[C@H](O)[C@@H](NC(C)=O)[C@H]([C@H](O)[C@H](O)CO)O4)[C@H]3O)[C@H](O[C@@H]3O[C@@H](C)[C@@H](O)[C@@H](O)[C@@H]3O)[C@H]2NC(C)=O)(CCC(=O)NCCCCCCO[C@@H]2O[C@H](CO)[C@@H](O[C@@H]3O[C@H](CO)[C@H](O)[C@H](O[C@]4(C(=O)O)C[C@H](O)[C@@H](NC(C)=O)[C@H]([C@H](O)[C@H](O)CO)O4)[C@H]3O)[C@H](O[C@@H]3O[C@@H](C)[C@@H](O)[C@@H](O)[C@@H]3O)[C@H]2NC(C)=O)[N+](=O)[O-])O[C@H](CO)[C@@H](O[C@@H]2O[C@H](CO)[C@H](O)[C@H](O[C@]3(C(=O)O)C[C@H](O)[C@@H](NC(C)=O)[C@H]([C@H](O)[C@H](O)CO)O3)[C@H]2O)[C@@H]1O[C@@H]1O[C@@H](C)[C@@H](O)[C@@H](O)[C@@H]1O [II-2]
- IC50 [2, 4]: 130 µM
- IC50 [1, 5]: 140 µM

Compound: CC(=O)N[C@H]1[C@H](OCCCCCCNC(=O)C2CCC(CN3C(=O)C=CC3=O)CC2)O[C@H](CO)[C@@H](O[C@@H]2O[C@H](CO)[C@H](O)[C@H](O[C@]3(C(=O)O)C[C@H](O)[C@@H](NC(C)=O)[C@H]([C@H](O)[C@H](O)CO)O3)[C@H]2O)[C@@H]1O[C@@H]1O[C@@H](C)[C@@H](O)[C@@H](O)[C@@H]1O (stereo partly shown) [Compound I-9]
- IC50 [1, 3]: 330 µM

Compound: CC(=O)N[C@H]1[C@H](OCCCCCCNC(=O)CCC(=O)O)O[C@H](CO)[C@@H](O[C@@H]2O[C@H](CO)[C@H](O)[C@H](O[C@]3(C(=O)O)C[C@H](O)[C@@H](NC(C)=O)[C@H]([C@H](O)[C@H](O)CO)O3)[C@H]2O)[C@@H]1O[C@@H]1O[C@@H](C)[C@@H](O)[C@@H](O)[C@@H]1O [Compound I-7]
- IC50 [1, 3]: 1500 µM

Compound: CC(=O)N[C@H]1[C@H](OCCCCCCNC(=O)CCSSc2ccccn2)O[C@H](CO)[C@@H](O[C@@H]2O[C@H](CO)[C@H](O)[C@H](O[C@]3(C(=O)O)C[C@H](O)[C@@H](NC(C)=O)[C@H]([C@H](O)[C@H](O)CO)O3)[C@H]2O)[C@@H]1O[C@@H]1O[C@@H](C)[C@@H](O)[C@@H](O)[C@@H]1O [Compound I-10]
- IC50 [2, 6]: 390 µM
- IC50 [1, 3]: 400 µM

Compound: CC(=O)N[C@H]1[C@H](OCCCCCCN)O[C@H](CO)[C@@H](O[C@@H]2O[C@H](CO)[C@H](O)[C@H](O[C@]3(C(=O)O)C[C@H](O)[C@@H](NC(C)=O)[C@H]([C@H](O)[C@H](O)CO)O3)[C@H]2O)[C@@H]1O[C@@H]1O[C@@H](C)[C@@H](O)[C@@H](O)[C@@H]1O [III (n = 6), reference compound]
- IC50 [1, 3]: 2000 µM

Compound: CC(=O)N[C@H]1[C@H](OCCCCCCNC(=O)[C@@H](N)CCC(=O)O)O[C@H](CO)[C@@H](O[C@@H]2O[C@H](CO)[C@H](O)[C@H](O[C@]3(C(=O)O)C[C@H](O)[C@@H](NC(C)=O)[C@H]([C@H](O)[C@H](O)CO)O3)[C@H]2O)[C@@H]1O[C@@H]1O[C@@H](C)[C@@H](O)[C@@H](O)[C@@H]1O [Compound I-6]
- IC50 [2, 6]: 1200 µM

Source: patent publication US5858994A, “Carbohydrate conjugates as inhibitors of cell adhesion” (priority 1994, dated 1999)
